# Measured values taken from patent publication US8268961B2, “Antibacterial peptides and analogues thereof” (Universita Degli Studi di Siena, priority 2004, dated 2012).
# Where two headings read alike, the source gives them in different places. Positions of bridges follow the written chain, without caps; N, C: chain ends. Residues, ends and D or L forms follow the SMILES beside them. Chains are numbered I, II in the order given. No end group written: not given here.
# Experiments:
# [1] = Stability to plasmatic protease (HPLC); format: in vitro ADME, human
# Experimental: Since the use of peptides as therapeutic agents is severely limited by their in vivo half-life, the stability to human serum protease of the linear peptide L1 and of the MAP peptides M1, M4, M5 and M6 was evaluated. The peptides were incubated at the concentration of 10 mM with plasma and with human serum for 2 and 24 hours; the samples were subsequently analysed in HPLC on column C18 (see materials and methods) to evaluate the presence of linear and MAP peptide not digested by the protease.
# The various peptides in MAP form and the linear peptide (L1) were dissolved in H2O at the concentration of 10 mM and incubated with 10 μl of plasma and human serum for 2 and 24 hours at 37° C. To each sample were added 150 μl of methanol to block the proteolytic reaction; each sample was then centrifuged at 13,000 rpm for 2 min and to the supernatant were added 0.75 ml of 0.1% trifluoroacetic acid. The samples were analysed in reverse phase HPLC on a Vydac C18 semi-preparative column using a 30 min gradient of buffer B from 20% to 95% (buffer A: 0.1% trifluoroacetic acid/water; buffer B: 0.1% trifluoroacetic acid/methanol), to evaluate the presence of linear and MAP peptide after the proteolytic treatment.
# E. coli strain TG1 = experiment: Test of antibacterial activity (colony growth inhibition) on E. coli strain TG1; format: cell-based; details: for Antibacterial activity on E. coli TG1 colony growth: E. coli TG1, colony counting vs control without peptide
# Experimental: The antimicrobic activity of the peptides in linear form (L1, L4, L5, L6) and in MAP form (M1, M4, M5, M6) was assayed on the TG1 strain of E. coli. The peptides were incubated at various concentrations (2-1-0.5-0.25-0.12 mg/ml) with cells of E. coli (OD600=0.2) for about 1 hour at 37° C. Subsequently, the cells were plated on agar at dilution such to allow counting of individual colonies. The antimicrobic activity of the synthesised peptide L 1 and M1 is shown FIG. 1 and is compared to a non correlated MAP peptide (MNC) used as negative control.
# In one example, the tetrabranched MAP peptides with the amino acid sequence: QAKIRVRLSA [SEQ ID NO: 2], KIRVRLSA [SEQ ID NO: 3], QKKIRVRLSA [SEQ ID NO: 4] are used individually in a bacterial colony growth inhibition test. The test is conducted by incubating different concentrations of MAP peptides with E. coli (strain TG1) and plating bacterial cells on agar at a dilution such to allow for individual colonies counting. The following day, the number of colonies grown after treatment with the three MAP peptides is compared.
# Antimicrobic tests were conducted incubating for 75 min at 37° C., 25 μL of E. coli at the OD600 of 0.2 with 25 μl of MAP peptide dissolved in PBS at the various concentrations. The different incubations were further diluted 1:1000 in 2×TY medium and 100 μl were plated on solid 2×TY medium. The plates were left overnight at 30° C. and the individual grown colonies were counted and compared with a control, not treated with MAP peptide.
# [2] = tested on: Pichia pastoris yeast strain X33; experiment: Effect on Pichia pastoris yeast colonies; format: cell-based
# Experimental: To a volume of 50 μl of culture of Pichia pastoris grown 24 hour at 30° C. in YPD (Yeast Extract/Peptone/Dextrose) medium, 50 μl of MAP peptides (2 mg/ml) were added and left in incubation 150 min at 37° C. Subsequently, 50 μl of each incubation were plated on YPD solid medium and it was allowed to grow for 48 hours at 30° C. The number of colonies grown was compared with a control, where the yeast was not treated with the MAP.
# [3] = tested on: Pseudomonas aeruginosa ATCC27853; format: cell-based
# From the text: (§1) MIC is defined as the lowest concentration, in an antibiotic dilution range, that inhibits visible bacterial growth. The importance of MIC sensitivity test is based on the principle that in vitro sensitivity provides a predictive indication of the in vivo efficacy of the antibiotic therapy. Values are expressed as molar concentration and compared to MIC values obtained with commercially available antibiotics such as amikacin, ceftriaxone and levofloxacin (Table 3).
# (§2) Reference strains (Escherichia coli ATCC 25922, Pseudomonas aeruginosa ATCC 27853, Staphylococus aureus ATCC 25923 and Chryseobacterium meningosepticum CCUG 4310) and several recent clinical isolates (including multidrug-resistant ones) of various species (Table 2) were used for conventional susceptibility testing experiments. Minimum Inhibitory Concentration (MIC) was determined by a standard microdilution assay as recommended by the National Commitee for Clinical Laboratory Standards (NCCLS) using cation-supplemented Mueller-Hinton (MH) broth (Oxoid Ltd. Basingstoke, UK) and a bacterial inoculum of 5×10^4 CFU per well, in a final volume of 100 μl. Results were recorded by visual inspection after 24 h of incubation at 37° C.
# [4] = tested on: Staphylococcus aureus ATCC 25923; format: cell-based
# From the text: as §1, §2
# [5] = tested on: Klebsiella pneumoniae W99FI0057; format: cell-based; details: W99FI0057
# From the text: as §1, §2
# [6] = tested on: Escherichia coli W99FI0077; format: cell-based; details: W99FI0077
# From the text: as §1, §2
# [7] = tested on: Pseudomonas aeruginosa 885149; format: cell-based; details: 885149
# From the text: as §1, §2
# [8] = tested on: Pseudomonas aeruginosa 891; format: cell-based; details: 891
# From the text: as §1, §2
# E. coli ATCC 25922 = experiment: Minimal bactericidal concentration (MBC); format: cell-based
# Experimental: as §2
# (§3) The MBC was determined as recommended by the National Committee for Clinical Laboratory Standards (NCCLS) on strains of E. coli ATCC 25922 and P. aeruginosa ATCC 27853.
# P. aeruginosa ATCC 27853 = experiment: Minimal bactericidal concentration (MBC); format: cell-based
# Experimental: as §2, §3
# [9] = tested on: Staphylococus aureus MIU-68A; format: cell-based, Staphylococcus aureus; details: Staphylococus aureus MIU-68A, meticillin-susceptible
# From the text: as §1, §2
# [10] = tested on: murine macrophage cells J774 A.1; experiment: Cytotoxicity test by MTT; format: cell-based, mouse
# Experimental: The cytotoxicity of antibacterial MAP peptides was evaluated on different eukaryotic cell lines by a colorimetric assay (MTT). This assay measures the cells' ability to convert a soluble tetrazolium salt into an insoluble precipitate: formazan. The cytotoxicity of M1 was evaluated on murine macrophagic cells (J774 A.1), murine myeloma cells (SPO) and Chinese hamster ovary epithelium cells (CHO K1). As shown FIG. 4, even at high concentrations (1 mg/ml) M1 cytotoxicity on CHO K1 cells and on SPO cells is low (percent survival is 80-90%).
# For cytotoxicity tests, different cell lines were used: murine myeloma cells SPO, hamster ovary epithelium cells CHO K 1, murine macrophage cells J774 A.1 and human keratinocytes HaCaT. The cells were plated in medium in RPMI 1640 (SPO and CHO K 1) and DMEM (J774 A.1 and HaCaT) with antibiotics and bovine foetal serum at 10%, in 96-well plates at the concentration of 6×10^4 (SPO, CHO K1 and J774 A.1) and 3×10^4 (HaCaT). Peptides, previously filtered with a 0.2 μm filter disk (Whatman), were added at various concentrations to the different cell lines and left in incubation over night at 37° C. Cell viability was determined adding the MTT tetrazolium salt at the concentration of 0.5 mg/ml and incubating for 90 min. The cells were solubilised with a solution at pH 4.5 containing SDS 10% and dimethylformamide 45% and read at the dual wavelength of 595/650 nm with a plate reader.
# [11] = tested on: Escherichia coli ATCC 25922; format: cell-based
# From the text: as §1, §2
# [12] = tested on: E. coli plasmid vector pCEP4 DNA; experiment: DNA binding assay (gel retardation); details: 200 ng pCEP4, 1% agarose gel, 1 h room temperature
# Experimental: In an attempt to clarify the molecular mechanism of action, the authors examined the binding properties on DNA exerted by M6 dendrimeric peptide and magainin 2, an antimicrobial peptide which has a pore-forming activity on the cell membrane. The DNA binding abilities of M6 and magainin 2 were examined by analyzing the electrophoretic mobility of DNA bands at the various weight ratios of peptides to DNA on a 1% (w/v) agarose gel.
# Gel-retardation experiments were performed by mixing 200 ng of the E. coli plasmid vector pCEP4 (Invitrogen) with increasing amounts of M6 peptide in 20 μl of binding buffer (5% glycerol, 10 mM Tris-HCl (pH 8.0), 1 mM EDTA, 1 mM DTT, 20 mM KCl and 50 μg/ml BSA). The reaction mixtures were incubated at room temperature for 1 h. Subsequently, 4 μl of native loading buffer was added (40% saccarose, 0.25% bromophenol blue) and an aliquot of 12 μl was applied to a 1% agarose gel electrophoresis in 1 mM Tris borate-EDTA buffer.
# [13] = Staphylococcus aureus ATCC 25923, reference strain
# [14] = Escherichia coli ATCC 25922, reference strain
# [15] = Pseudomonas aeruginosa ATCC27853, reference strain
compound,measurement,setting,value
"CC[C@H](C)[C@H](NC(=O)[C@H](CCCCN)NC(=O)[C@H](CCC(=O)O)NC(=O)[C@@H](N)CCC(N)=O)C(=O)N[C@@H](CCCNC(=N)N)C(=O)N[C@H](C(=O)N[C@@H](CCCNC(=N)N)C(=O)N[C@@H](CC(C)C)C(=O)N[C@@H](CO)C(=O)N[C@@H](C)C(N)=O)C(C)C [L1, QEKIRVRLSA] (H-QEKIRVRLSA-NH2; N-terminus assumed)",Resistance to plasmatic protease: Plasma 2 h,[1],+
same,Resistance to plasmatic protease: Plasma 24 h,[1],−
same,Antibacterial activity on E. coli TG1 colony growth,E. coli strain TG1,inhibited significantly
"I: QAKIRVRLSAKKA-OH / II: QAKIRVRLSAK / III: QAKIRVRLSA / IV: QAKIRVRLSA (amide I:11-IV:C, I:12-II:C, II:11-III:C) [M4]",Resistance to plasmatic protease: Plasma 2 h,[1],+
same,Resistance to plasmatic protease: Plasma 24 h,[1],+
same,Number of yeast colonies vs negative control,[2],did not differ from the negative control
same,MIC (Molarity),[3]; ATCC27853,6.4 µM
same,MIC (Molarity),[4]; ATCC 25923,1.3e-05 M
same,MIC (Molarity),"[4]; Staphylococcus aureus ATCC 25923, reference strain, listed as M32 = M4",>1.2e-05 M
same,MIC (Molarity),"[4]; Staphylococcus aureus ATCC 25923, reference strain, listed as QAKIRVRLSA",~10^−5 M
same,MIC (Molarity),[5],13 µM
same,MIC (Molarity),[6],3.2 µM
same,MIC (Molarity),[7],13 µM
same,MIC (Molarity),[8],13 µM
same,MBC (minimal concentration able to kill 99.9% of the inoculum) compared with MIC,E. coli ATCC 25922,equal to the calculated values of MIC
same,MBC (minimal concentration able to kill 99.9% of the inoculum) compared with MIC,E. coli ATCC 25922; listed as QAKIRVRLSA,equal to the corresponding MIC values
same,MBC (minimal concentration able to kill 99.9% of the inoculum) compared with MIC,P. aeruginosa ATCC 27853,equal to the calculated values of MIC
same,MBC (minimal concentration able to kill 99.9% of the inoculum) compared with MIC,P. aeruginosa ATCC 27853; listed as QAKIRVRLSA,equal to the corresponding MIC values
same,MIC (Molarity),[9],>26 µM
same,Concentration down to which TG1 E. coli colony growth is prevented,"E. coli strain TG1; E. coli TG1, MAP form",less effective
same,Antibacterial activity on E. coli TG1 colony growth,E. coli strain TG1,good antibacterial activity
same,Concentration at and over which a drop in cell viability was evident (MTT),[10],≥ 250 µg/mL
same,Vitality of J774 A.1 cells as the concentration of MAP peptides increases (MTT),[10],decreases
"I: QRRIRVRLSAKKA-OH / II: QRRIRVRLSAK / III: QRRIRVRLSA / IV: QRRIRVRLSA (amide I:11-IV:C, I:12-II:C, II:11-III:C) [M30, QRRIRVRLSA]",MIC (Molarity),[11]; ATCC 25922,3 µM
same,MIC (Molarity),[3]; ATCC27853,12 µM
same,MIC (Molarity),[4]; [13],>1.2e-05 M
QKKIRARLSA [M36],MIC (Molarity),[11]; [14],>12 µM
same,MIC (Molarity),[3]; [15],>12 µM
same,MIC (Molarity),[4]; [13],>1.2e-05 M
QKKIRVRASA [M38],MIC (Molarity),[11]; [14],>12 µM
same,MIC (Molarity),[3]; [15],>12 µM
same,MIC (Molarity),[4]; [13],>1.2e-05 M
magainin 2 [reference compound],Weight ratio of peptide to DNA at which migration of DNA is inhibited,[12],5
